# Experimental data from patent US5525591A, “Endoparasiticidal compositions based on open-chain octadepsipeptides” (Bayer Aktiengesellschaft, priority 1993, dated 1996).
# Tested on: Haemonchus contortus
# Experiment: In vivo nematode test Haemonchus contortus/sheep
# Details: sheep infected experimentally with Haemonchus contortus, treated after prepatency period; pure active compound applied orally and/or intravenously; dose at which nematode egg excretion with the faeces stopped completely
# Experimental: In vivo nematode test Haemonchus contortus/sheep
# The degree of effectiveness is determined by quantitatively determinating the nematode eggs excreted with the faeces before and after the treatment.
substance,measurement,value
tert-Butyl-N-Benzyl-N-propyl-L-leucyl-D-lactyl-N-^i -propyl-L-leucyl-D-3-phenyllactyl-N-^i propyl-L-leucyl-D-lactyl-N-^i propyl-L-leucyl-D-3-phenyllactate [Example 2],Dosis effectiva,10 mg/kg
